The source of these data is publication PMC10182601, “Biological evaluation of novel gemcitabine analog in patient-derived xenograft models of pancreatic cancer” (BMC Cancer, 2023).

A short description of data set [1]: In vitro release of 4NSG (dialysis bag, PBS pH 7.4). The note with it: PBS pH 7.4, 37 °C. Format: physicochemical. As to the method:
Cumulative in vitro drug release studies were performed as previously described. Free 4NSG (3 mg), freshly prepared and lyophilized 4NSG-SLNs containing approximately 5 mg (suspended in 2 mL PBS) were placed in dialysis bags with molecular weight cut-off (MWCO) of 3.5 kDa) and immersed in their respective labeled 15 mL PBS, (pH 7.4) as the release medium and incubated at 37 °C. The free 4NSG, freshly prepared and lyophilized 4NSG-SLNs solutions were gently stirred at 100 rpm 1 mL aliquots were withdrawn and replenished with fresh PBS (maintained at 37 °C) at 0, 1, 2, 4, 8, and 12 h for analysis. The samples were analyzed for the presence of 4NSG using the HPLC system previously described under the HPLC analysis of 4NSG of the in vitro metabolic stability of the 4NSG section.

In data set [2] the test system is pancreatic patient-derived xenograft (PDX) mouse model. On the set-up: method as in PMID 33015617. As to conditions: earlier work of the authors ref 22; cited from earlier work.
Data set [3] is described as follows: Stability of 4NSG in PBS (pH 7.4). It is filed as physicochemical. As to conditions: 4NSG 10 µM, PBS pH 7.4, 37 °C, end of the 4 h study. As to the method:
(§1) The metabolic stability of 4NSG was examined in the presence of PBS (pH 7.4) and human liver microsomes as previously described. Human liver microsomes were obtained from Sigma-Aldrich. 4NSG (10 µM) was spiked into PBS, or liver microsomes (1 mg protein/mL) and incubated in a shaking water bath at 37 °C for […]. Aliquots (100 µL) were taken after 0, 15, 30, 60, 120, 180, 220 and 240 min of incubation and immediately pretreated with an ice-cold methanolic solution including the internal standard, vortexed for 3 min and centrifuged (12,000 × g, 10 min). Supernatants were stored at -80 C until required for analysis.
(§2) To determine concentrations of 4NSG in PBS and human liver microsomes solutions, supernatants from PBS and human liver microsomes controls were spiked with aliquots of 0.5 μg/ml of 4NSG. The chromatographic analysis was performed according to the method described with minor modifications. The samples were prepared using aliquots of supernatants (10µL) of control (spiked), PBS, and human liver microsomes. […] A plot of the peak areas as a function of 4NSG concentration was plotted, and the linear equation of the calibration curve given as y = mx + c was determined, where y is the peak area, m is the slope, x is the concentration of 4NSG, and c is the y—intercept.

A short description of data set [4]: In vitro metabolic stability of 4NSG in human liver microsomes. It is filed as in vitro ADME. As to conditions: 4NSG 10 µM, liver microsomes 1 mg protein/mL, 37 °C, end of the 4 h study. As for the experimental part: as §1, §2
The next data set has as its system PPCL-192 cells. Description: Cell viability (resazurin/Alamar blue), PPCL-192. It is filed as cell-based. As to conditions: Homo sapiens; 48 h treatment. As for the experimental part: (§3) PCa primary cell were cultured with Dulbecco's modified Eagle medium (DMEM) with high glucose and L-glutamine and supplemented with 10% fetal bovine serum (FBS) and 1% penicillin–streptomycin (PenStrep). Briefly, PPCL-192, PPCL-135, PPCL-46, and PPCL-68 were seeded at a density of 1 × 10^3 per well in 96-well plates in triplicates for each drug concentration level and incubated at 5% CO2 and a temperature of 37 °C [32]. At 70 -75% confluency, PPCL-192, PPCL-135, PPCL-46, and PPCL-68 cells were treated with GemHCl, 4NSG-free SLN, and 4NSG-SLN. Varying concentrations of 4NSG-SLN and 4NSG-free SLN were prepared by diluting their stock solutions with a growth medium. For GemHCl, a stock solution was prepared with phosphate-buffered saline (PBS) and serially diluted with a growth medium to prepare different concentrations: 3, 6, 12, 25, 50, and 100 µM. The cells were treated with 100 µL of each drug concentration in triplicates and incubated for 48 h. At termination, 20 µL of 0.05% resazurin sodium salt (Alamar blue®) was added and incubated at optimum conditions (5% CO2, 37 °C) for 2–4 h. GloMax® Explorer Multimode Microplate reader with a fluorescence excitation wavelength of 560/580 nm and emission wavelength of 590/610 nm was used to determine the percent viable cells per concentration calculated.
In general terms: Alamar Blue is a resazurin reagent that responds to reducing activity.

Another data set has as its system PPCL-135 cells. Description: Cell viability (resazurin/Alamar blue), PPCL-135. Format: cell-based. The note with it: Homo sapiens; 48 h treatment. As for the experimental part:
as §3

A further data set concerns PPCL-46 cells. Description: Cell viability (resazurin/Alamar blue), PPCL-46. As to conditions: Homo sapiens; 48 h treatment. Format: cell-based. As for the experimental part: as §3
The conditions of data set [5]: background statement of the introduction, no reference printed with it; cited from earlier work.
In the next data set the test system is PPCL-68 cells. Briefly: Cell viability (resazurin/Alamar blue), PPCL-68. Format: cell-based. The note with it: Homo sapiens; 48 h treatment. As for the experimental part: as §3

Bounds are passed on as bounds.

For `CCCCCCCCCCCCCCCCCC(=O)Nc1ccn([C@@H]2OC(CO)C(O)C2(F)F)c(=O)n1` (some centres unmarked) [4NSG, 4-(N)-stearoyl-gemcitabine], the “further 4NSG release in the next 2 h” value in [1] (2 h to 4 h, dialysis bag) is 20%. Moreover, in [1] (dialysis bag MWCO 3.5 kDa), the “cumulative 4NSG release within the first 2 h” value is reported as “about 60%”. In data set [2], the “morphological changes to mice's liver and kidney tissues” value is listed as “no morphological changes”; the “tumor growth in pancreatic PDX mouse model” value is on record as “remarkably reduced tumor growth”. Moreover, in data set [3], the “metabolic stability of 4NSG in PBS” value is 99%. For the same molecule, the “percent unchanged 4NSG in human liver microsomal solution” value in data set [4] is reported as “about 90%”.

In general, IC50 refers to the point on the concentration scale where inhibition reaches its midpoint. For the molecule `Nc1ccn([C@@H]2O[C@H](CO)[C@@H](O)C2(F)F)c(=O)n1` [Gem, Gemcitabine], the IC50 worked out at 57 ± 1.5 µM in the data set on PPCL-192 cells, 56 ± 1.5 µM in the data set on PPCL-135 cells, 56 ± 1.8 µM in the data set with PPCL-46 cells and 57 ± 2.4 µM in the data set on PPCL-68 cells. For the same molecule, the plasma circulation half-life in data set [5] is reported as < 15 min.
